According to PMC9841576, “Characterisation of C101248: A novel selective THIK-1 channel inhibitor for the modulation of microglial NLRP3-inflammasome” (Neuropharmacology, 2023):

Assays:
THIK-1 = target: T1, THIK-1 (Homo sapiens, UniProt Q9HB14); experiment: Competition radioligand binding with 3H-C101505, membranes from HEK-hKCNK13 cells
T1 construct: expressed in transfected cells
T1 sequence (Q9HB14 1-408): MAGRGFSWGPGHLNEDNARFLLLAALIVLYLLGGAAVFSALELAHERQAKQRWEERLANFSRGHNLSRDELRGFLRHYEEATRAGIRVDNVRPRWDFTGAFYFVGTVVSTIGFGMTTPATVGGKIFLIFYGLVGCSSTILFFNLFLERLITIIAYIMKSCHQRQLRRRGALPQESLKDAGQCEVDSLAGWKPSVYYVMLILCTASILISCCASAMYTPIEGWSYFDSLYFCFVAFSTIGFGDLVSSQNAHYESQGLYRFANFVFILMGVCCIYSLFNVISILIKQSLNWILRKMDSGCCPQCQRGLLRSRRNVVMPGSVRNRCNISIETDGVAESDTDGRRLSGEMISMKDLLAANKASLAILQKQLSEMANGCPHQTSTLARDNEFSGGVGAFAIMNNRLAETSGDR
Procedure: From within the same chemotype as C101248, a structurally related compound (C101505) was tritiated for use in radioligand binding studies (specific activity 14 Ci/mmol). All radioligand binding assays were performed by Gifford Bioscience (Birmingham, UK). Cells were grown to approximately 90% confluence, washed twice with PBS and once with PBS with sucrose (10%) solution that was removed before the flasks were stored at −80 °C. Upon thawing, ice-cold lysis buffer (50 mM Tris-HCl; 5 mM MgCl2; 5 mM EDTA; protease inhibitor cocktail) was added to the flasks for 5 min (4 °C) and the cell layer scraped into collection tubes. The lysate was centrifuged at 13,000 g for 10 min (4 °C) to pellet the membranes. […] A sample of the homogenate was analysed for protein content using a BCA protein assay kit. […] Filters were then dried under a warm air stream, sealed in polyethylene, scintillation cocktail added, and the radioactivity counted in a MicroBeta TriLux counter (Wallac). […] The in vitro binding affinity (Ki) of C101248 was calculated from the experimental IC50 value using the Cheng-Prusoff equation (([Cheng and Prusoff, 1973]) Ki = IC50/(1 + ([L]/KD)), where [L] was the radioligand concentration in the displacement assay and KD was the radioligand dissociation constant determined from previous saturation binding studies.

[1] = target: T2, THIK-1 K+ currents in microglia (Mus musculus, UniProt Q8R1P5); experiment: Whole-cell patch clamp of microglia in acute hippocampal slices, wild-type mice; format: cell-based
T2 construct: To study the effect of C10248 in native brain tissue; from tissue; host or cells: microglia in acute hippocampal slices of 3-4 month old Cx3Cr1-GFP mice
T2 sequence (Q8R1P5 whole entry): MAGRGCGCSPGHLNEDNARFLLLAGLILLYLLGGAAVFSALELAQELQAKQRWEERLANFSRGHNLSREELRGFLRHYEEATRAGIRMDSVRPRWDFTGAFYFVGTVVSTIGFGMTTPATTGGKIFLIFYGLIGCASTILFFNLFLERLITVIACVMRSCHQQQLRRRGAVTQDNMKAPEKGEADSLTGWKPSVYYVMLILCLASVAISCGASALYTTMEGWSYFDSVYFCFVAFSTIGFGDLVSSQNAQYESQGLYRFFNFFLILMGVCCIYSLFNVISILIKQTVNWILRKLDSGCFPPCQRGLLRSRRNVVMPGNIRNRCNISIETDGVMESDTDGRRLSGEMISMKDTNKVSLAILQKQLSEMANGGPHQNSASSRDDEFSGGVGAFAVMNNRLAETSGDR
Procedure: Acute hippocampal slices (300 μm thick), from 3 to 4 months old mice, were prepared using a specially adapted protective slicing solution ([Ting et al., 2014]) containing (mM) 93 choline chloride, 20 HEPES, 30 NaHCO3, 2.5 KCl, 0.5 CaCl2, 10 MgCl2, 1.2 NaH2PO4, 25 glucose, 1 kynurenic acid, 5 Na-ascorbate, 3 Na-pyruvate, pH adjusted to 7.4, bubbled with 95% O2/5% CO2 and cooled at <4 °C, and a recovery solution containing (mM) 92 NaCl, 20 HEPES, 30 NaHCO3, 2.5 KCl, 2 CaCl2, 1 MgCl2, 1.2 NaH2PO4, 25 glucose, 1 kynurenic acid, 5 Na-ascorbate, 3 Na-pyruvate, pH set to 7.4 and bubbled with 95% O2/5% CO2
Immediately after slicing, slices were placed for 13 min in warm (33–35 °C) slicing solution and then transferred to recovery solution at room temperature until experimental usage. […] Slices were perfused with bicarbonate-buffered solution, at 34–36 °C for all experiments, containing (mM) 124 NaCl, 2.5 KCl, 26 NaHCO3, 1 NaH2PO4, 2 CaCl2, 1 MgCl2, 10 glucose, bubbled with 95% O2/5% CO2. Microglia were whole-cell clamped with electrodes containing K-gluconate based solution, comprising (mM) 130 K-glu, 4 NaCl, 1 CaCl2, 10 HEPES, 10 EGTA, 4 MgATP, 0.5 Na2GTP, pH set to 7.2 with KOH and osmolarity adjusted to […]. […] Currents were filtered at 1 kHz, digitized (10 kHz) and analysed off-line using pClamp10 software.

- Ki (THIK-1; Cheng-Prusoff from IC50, radioligand 3H-C101505): 57 nM
- IC50 (THIK-1; radioligand 3H-C101505, HEK-hKCNK13 membranes, read-out: IC50, displacement of radioligand): 77 nM
- effect on microglial resting membrane potential ([1]; 5 μM, current-clamp, no externally applied ATP): significantly depolarised
- effect on 100 μM ATP-evoked THIK-1 K+ currents ([1]; 0.05, 0.5 and 5 μM, microglia voltage-clamped at 0 mV): dose-dependently inhibited
SMILES: Nc1nonc1-c1nc2ccccc2n1Cc1ccncc1 [C101248]
